Data set [1] can be described thus: Precipitation / solubility in cell culture medium. In kind it is physicochemical. The protocol: (§1) The rhabdoid cell line (MON) (88) was cultured in RPMI 1640 supplemented with 10% fetal bovine serum, 2 mM L-glutamine, 50 U/ml penicillin, and 50 μg/ml streptomycin at 37° C. with 5% CO2 and 95% humidified air. 4-(Fenretinide) was either obtained from NCI or synthesized in house. Fenretinide or its synthetic derivatives were reconstituted in 100% ethanol as a 10 mM solution and the aliquots were stored frozen at −80° C., protected from light. Working solutions (50 μM or 200 μM) and serial dilutions were prepared by diluting the stock solution with culture medium, such that the concentration of ethanol was <2% in all dilutions.

Data set [2] has as its system MON (INI1−/−) rhabdoid tumor cells. The experiment in a line: MTS survival assay of rhabdoid tumor cells. The format is cell-based. The protocol: FIG. 1A-1D. Effect of 4HPR derivatives with phenyl group substitutions on survival of rhabdoid tumors cells. MON (INI1−/−) cells were treated with serial dilutions of the 4HPR, ATRA and 4HPR derivatives for three days. Survival assay was carried out as described using MTS assay kit. Percentage of cell survival plotted against concentration of drugs (Mean+/−SEM).
FIG. 2. Effect of fenretinide peptidomimitic derivatives on the survival of rhabdoid tumor cells in culture. % survival of MON rhabdoid tumor cells treated with fenretinide derivatives, when compared to the vehicle treated control. The data in all the panels represent the average of triplicate experiments, and the standard error is indicated.
as §1
Aliquots of 8×10^3 MON cells were plated in 96-well microdilution plates. Twenty four hours after seeding, the cells were treated with serial dilutions of each drug. Following incubation for 24 or more hours, each well was stained with 20 μl of MTS [3-(4,5-dimethylthiazol-2-yl)-5-(3-carboxymethoxyphenyl)-2-(4-sulfophenyl)-2H-tetrazolium, inner salt] that was mixed 20:1 V/V in PMS (phenazine methosulphate, CellTiter 96® AQueous Non-Radioactive Cell Proliferation Assay Kit, Promega, Madison, Wis.) added to each of the well in the microtiter plate containing 100 μl of culture medium. After 4 h incubation, the plates were analyzed by an ELISA plate reader (Wallac Victor, 1420 Multilabel Counter, Perkin Elmer) at 490 nm wave-length. Cell plating, drug treatment and survival assay were performed using the epMotion 5070 automated liquid handling robotic system (Eppendorff, Westbury, N.Y.).
Statistical analysis of the data was carried out using GraphPad Prism (San Diego, Calif.). Relative IC50 values were calculated using the nonlinear regression curve fit with sigmoidal dose response (variable slope) function. Relative IC50 is defined as the concentration giving a response exactly half way between the fitted top and bottom of the survival curve when graphed as percent inhibition versus the log of the concentration of compound. The fitting error, or standard error describes the error involved in fitting the curve.
(Formazan colour is commonly taken as a measure of viable cells.)

The next data set concerns tumor cell. Particulars: in vitro, literature (ref 1); read-out: IC50s, suppression of tumor cell growth in vitro; cited from earlier work.
Data set [3] concerns MON (INI1−/−) rhabdoid tumor cells. The experiment in a line: MTS survival assay of rhabdoid tumor cells. In kind it is cell-based. Particulars: charcoal adsorbed serum.
For data set [4] the following is noted: 200 mg/day (MTD), breast cancer patients, literature (ref 3); cited from earlier work.
A further data set deals with Cyclin D1. In words: Immunoblot analysis of Cyclin D1 expression. In kind it is cell-based. The settings on record: biomarker expression, Table 3. Here is the method:
FIG. 5A-5B. Effect of fenretinide, its derivatives and peptidomimetic compounds on expression of Cyclin D1. Immunoblot analysis to determine the effect of fenretinide and its halogen substitutes (A) and peptidomimetic compounds (B). GAPDH is a loading control.
This assay was performed using a routine laboratory protocol as previously described using chemiluminescence detection method (30). The following antibodies were used: polyclonal α-cyclin D1 Ab-3 (NeoMarkers, Cat# RB-010-P0), monoclonal α-cyclin D1 DCS-6 (NeoMarkers, Cat# MS-210-P1), α-β-Actin (Sigma Cat# A5441) and α-Tubulin-α (Sigma, Cat # T5168).
(§2) The effects of fenretinide, halogen substitutes, and peptidomimetic derivatives on cell cycle regulation and apoptosis were tested by using: i) cell survival assay (MTS); ii) FACS analysis; and iii) immunoblot analysis to determine the effect on Cyclin D1.
Background: A western blot detects proteins with antibodies after separation by electrophoresis.

For another data set, the system named is MON cells. The experiment in a line: FACS analysis of cell cycle and sub-G1 (apoptosis). In kind it is cell-based. The settings on record: 2 days. The protocol: FIG. 3A-3B. Induction of cell cycle arrest and apoptosis by halogen derivatives of fenretinide. A. Cell cycle profile determined by FACS analysis of MON cells treated with either 5 or 10 μM concentrations of fenretinide and its derivatives for 2 days. Percentage of cells at various stages of cell cycle (G1, S and G2) is indicated. B. Percentage of MON cells at sub-G1 when exposed for 2 days to fenretinide and its derivatives.
FIG. 4A-4B. Induction of cell cycle arrest and apoptosis by peptidomimetic derivatives of fenretinide. A. Cell cycle profile determined by FACS analysis of MON cells treated with either 5 or 10 μM concentrations of fenretinide and its derivatives for 2 days. Percentage of cells at various stages of cell cycle (G1, S and G2) is indicated. B. Percentage of MON cells at sub-G1 when exposed for 2 days to fenretinide and its derivatives.
as §2
A general note: Flow cytometry measures light scatter and fluorescence of single cells or particles in a stream.

Where [5] appears, read: MON cells, nonlinear regression, sigmoidal dose response, read-out: Relative IC50.
[6] abbreviates: MON rhabdoid cells, survival assay, values in text, read-out: IC50.
The mark [7] stands for this setting: regular FBS, read-out: IC50 (in regular FBS).

Read-outs that look alike come from different tables or passages of the source. Bounds are passed on as bounds.

As to “(2E,4E,6E,8E)-[3,7-Dimethyl-9-(2,6,6-trimethyl-1-cyclohexenyl)-nona-2,4,6,8-tetraenoylamino]-(3-nitro, 4-hydroxy)phenylamide [5(k)]”, in data set [1], the “behaviour in cell culture medium (precipitation / insolubility)” value (“behaviour … (precipitation / insolubility)” below) is recorded as “insoluble in cell culture medium”.
Turning to `CC1=C(/C=C/C(C)=C/C=C/C(C)=C/C(=O)Nc2ccc(O)cc2)C(C)(C)CCC1` [Compound 4-HPR, N-(4-hydroxyphenyl)retinamide, reference compound], the IC50 in data set [2] (setting [5]) was 14.7 µM; in data set [2] (MON cells, three days, compounds in FIG. 1A-1D, concentration of drug required to kill 50% of cells, read-out: IC50), 19 µM; in data set [2] (setting [6]), about 15 µM; in data set [2] (setting [7]) it was 12 to 19 µM; with tumor cell, 1 to 10 µM; in data set [3], 2 µM. For the same compound, the plasma concentration in data set [4] was 1000 nM. Further, the “Repression of Cyclin D1” value in the data set with Cyclin D1 is reported as “Yes”. Further, the “% G1” value was 86.32% in the data set with MON cells (5 μM, Table 5); 86.32% with MON cells (5 μM, Table 6); 85.41% in the data set with MON cells (10 μM, Table 5); 85.41% with MON cells (10 μM, Table 6). Further, the “% G2” value in the data set with MON cells (5 μM, Table 5) stood at 6.73%; in the data set with MON cells (5 μM, Table 6), 6.49%; in the data set with MON cells (10 μM, Table 5), 6.66%; in the data set with MON cells (10 μM, Table 6), 7.60%. In addition, the “% S” value in the data set on MON cells (5 μM, Table 5) is 6.95%; with MON cells (5 μM, Table 6) it was 6.95%; in the data set on MON cells (10 μM, Table 5) it was 7.93%; with MON cells (10 μM, Table 6) it was 8.02%. The “SubG1 (percentage of MON cells at sub-G1)” value in the data set with MON cells (5 μM, Table 5) is recorded as 37.12%; in the data set with MON cells (5 μM, Table 6), 37.12%; in the data set with MON cells (10 μM, Table 5) it was 73.98%; in the data set with MON cells (10 μM, Table 6) it was 73.98%.
As for `CCC1=C(C)/C(=C/c2ccc(C(=O)Nc3ccc(O)cc3)cc2)CCC1(C)C` [Compound 11a, (E)-4-((3-ethyl-2,4,4-trimethylcyclohex-2-enylidene)methyl)-N-(4-hydroxyphenyl)benzamide], the “behaviour … (precipitation / insolubility)” value in data set [1] is on record as “precipitated in cell culture medium”. In the data set on MON cells (5 μM, Table 6), the “% G1” value was 59.33%, the “% G2” value was 26.19%, the “% S” value is 14.49% and the “SubG1 (percentage of MON cells at sub-G1)” value is given as 53.97%. Also, in the data set with MON cells (10 μM, Table 6), the “% G1” value was 60.40%, the “% G2” value was 22.84%, the “% S” value was 16.76% and the “SubG1 (percentage of MON cells at sub-G1)” value amounted to 62.59%.
Regarding `CC1=C(/C=C/C(C)=C/C=C/C(C)=C/C(=O)Nc2ccc(I)cc2)C(C)(C)CCC1` [5(d), (2E,4E,6E,8E)-[3,7-Dimethyl-9-(2,6,6-trimethyl-1-cyclohexenyl)-nona-2,4,6,8-tetraenoylamino]-(4-iodo)phenylamide], the IC50 in data set [2] (setting [7]) is over 50 µM; in data set [3], over 15 µM. Besides, in data set [1], the “behaviour … (precipitation / insolubility)” value is given as “precipitated in cell culture medium”.
Consider `CCC1=C(C)/C(=C/c2ccc(C(=O)Nc3ccc(O)c(I)c3)cc2)CCC1(C)C` [Compound 11d, (E)-4-((3-ethyl-2,4,4-trimethylcyclohex-2-enylidene)methyl)-N-(4-hydroxy-3-iodophenyl)benzamide], for which the IC50 in data set [2] (setting [5]) worked out at 3.15 µM; in data set [2] (setting [6]) it was 3 µM. Also, in data set [2] (compared with 4-HPR), the “cytotoxic activity against rhabdoid tumor cells (in words)” value is “more active when compared to parent Fenretinide”. Moreover, in data set [1], the “behaviour … (precipitation / insolubility)” value was “did not show any precipitation”.
For the compound `COc1ccc(NC(=O)/C=C(C)/C=C/C=C(C)/C=C/C2=C(C)CCCC2(C)C)cc1` [5(f), (2E,4E,6E,8E)-[3,7-Dimethyl-9-(2,6,6-trimethyl-1-cyclohexenyl)-nona-2,4,6,8-tetraenoylamino]-(4-methoxy)phenylamide], the “behaviour … (precipitation / insolubility)” value in data set [1] is on record as “insoluble in cell culture medium”.

Values taken from US8460635B2, “Fenretinide derivatives and uses thereof as therapeutic, diagnostic and imaging agents” (Albert Einstein College of Medicine of Yeshiva University, priority 2008, dated 2013).
